Laboratory results as given in patent US3966951A, “Esters of quinoxaline-1,4-dioxides” (Pfizer Inc., priority 1975, dated 1976).
Converted amounts (≈) assume the structure as drawn.

Tests used:
E. Coli 51A-266 = test: in vitro MIC, Inocula Replicating Device, anaerobic Gas Pac, BHI agar; type: cell-based; settings: unit assumed
E. Coli 51A-218 = test: as above; type: cell-based; settings: unit assumed
Sal. typhim 58D011 = test: as above; type: cell-based; settings: unit assumed
Past. mult 59A004 = test: as above; type: cell-based; settings: unit assumed
Sal. dublin 58U001 = test: as above; type: cell-based; settings: unit assumed
Strep. equi 021001 = test: as above; type: cell-based; settings: unit assumed
Aer. hydro 72B001 = test: as above; type: cell-based; settings: unit assumed
Staph. aureus 01A005 = test: as above; type: cell-based; settings: unit assumed
Staph. aureus 01A106 = test: as above; type: cell-based; settings: unit assumed
Strep. pyogen 02C203 = test: as above; type: cell-based; settings: unit assumed
Past. mult 59A006 = test: as above; type: cell-based; settings: unit assumed
Strep. zoo 02-H001 = test: as above; type: cell-based; settings: unit assumed
Sal. cholsu 58B242 = test: as above; type: cell-based; settings: unit assumed
[1] = tolerance and pathological examination in swine; type: in vivo
E. Coli 51A266 = test: acute systemic infection in mice, PD50; type: in vivo; settings: Escherichia coli, 0.5, 4 and 24 h after inoculation, ± is 95% confidence
Procedure: (§1) Acute systemic infections in mice have been used to evaluate the in vivo therapeutic activity of Compound 10. These infections are produced by the intraperitoneal injection of standard cultures suspended in hog gastric mucin. Treatment was initiated 0.5 hours after inoculation with the infecting organism and two subsequent doses administered at 4 and 24 hours after inoculation. Efficacy was measured in PD50 values, the dose of the drug in mg/kg required to protect 50% of the treated mice against otherwise lethal infections. These values were calculated based on the number of mice surviving a 4 day post-treatment holding period. The drugs were administered both orally (po) and subcutaneously (sc). The range quoted indicates the 95% confidence level for the PD50.

Past. multi. 59A006 = test: acute systemic infection in mice, PD50; type: in vivo; settings: Mus musculus, 0.5, 4 and 24 h after inoculation, ± is 95% confidence
Procedure: as §1

Sal. cholsu. 58B242 = test: acute systemic infection in mice, PD50; type: in vivo; settings: Mus musculus, 0.5, 4 and 24 h after inoculation, ± is 95% confidence
Procedure: as §1

feed efficiency of swine = type: in vivo; settings: 50 ppm in feed
swine dysentery = test: prophylaxis of induced swine dysentery; type: in vivo; settings: 25 ppm or 50 ppm in feed
From the text: (§2) In the prophylaxis of two induced diseases, swine dysentery and salmonellosis, excellent results have been obtained. […] In the salmonellosis model, 20 percent of the nonmedicated animals died and 50 percent of the survivors were unthrifty.

salmonellosis = test: prophylaxis of induced salmonellosis; type: in vivo, swine; settings: 50 ppm in feed
From the text: as §2

Treponema hyodysenteriae = test: MIC against Treponema hyodysenteriae on bovine blood/tryptose agar; type: cell-based; settings: about 5% bovine blood, about 3% tryptose agar, unit assumed
Procedure: MIC's against Treponema hyodysenteriae were determined by spreading appropriate dilutions of the microorganism on a growth medium containing about 5% bovine blood and about 3% tryptose agar.

tolerance in chicks = type: in vivo; settings: 250 ppm

Primary in vitro Activity (MIC) (E. Coli 51A-266)	Primary in vitro Activity (MIC) (E. Coli 51A-218)	Primary in vitro Activity (MIC) (Sal. typhim 58D011)	Primary in vitro Activity (MIC) (Past. mult 59A004)	Primary in vitro Activity (MIC) (Sal. dublin 58U001)	Primary in vitro Activity (MIC) (Strep. equi 021001)	Primary in vitro Activity (MIC) (Aer. hydro 72B001)	Primary in vitro Activity (MIC) (Staph. aureus 01A005)	Primary in vitro Activity (MIC) (Staph. aureus 01A106)	Primary in vitro Activity (MIC) (Strep. pyogen 02C203)	Primary in vitro Activity (MIC) (Past. mult 59A006)	Primary in vitro Activity (MIC) (Strep. zoo 02-H001)	Compound	Primary in vitro Activity (MIC) (Sal. cholsu 58B242)	further results
< 100 µg/mL	50 µg/mL	< 100 µg/mL	12.5 µg/mL	< 100 µg/mL	< 1.56 µg/mL	3.2 µg/mL	12.5 µg/mL	6.25 µg/mL	25 µg/mL	25 µg/mL	< 100 µg/mL	CC(=O)c1c(COC(=O)c2cccc(O)c2)[n+]([O-])c2ccccc2[n+]1[O-] [Compound 2]	< 100 µg/mL	
50 µg/mL	25 µg/mL	25 µg/mL	50 µg/mL	50 µg/mL	6.25 µg/mL	3.12 µg/mL	6.25 µg/mL	12.5 µg/mL	3.12 µg/mL	12.5 µg/mL	6.25 µg/mL	O=C(Cc1ccc(O)cc1)OCc1c[n+]([O-])c2ccccc2[n+]1[O-] [Compound 9]	12.5 µg/mL	
100 µg/mL	100 µg/mL	100 µg/mL	50 µg/mL	100 µg/mL	12.5 µg/mL	12.5 µg/mL	25 µg/mL	25 µg/mL	50 µg/mL	50 µg/mL	100 µg/mL	O=C(CCc1ccc(O)cc1)OCc1c(CO)[n+]([O-])c2ccccc2[n+]1[O-] [Compound 5]	100 µg/mL	
12.5 µg/mL	12.5 µg/mL	25 µg/mL	12.5 µg/mL	25 µg/mL	< 1.56 µg/mL	1.56 µg/mL	1.56 µg/mL	1.56 µg/mL	< 1.56 µg/mL	25 µg/mL	12.5 µg/mL	O=C(Cc1ccc(O)cc1)OCc1c(CO)[n+]([O-])c2ccccc2[n+]1[O-] [Compound 6]	25 µg/mL	
12.5 µg/mL	12.5 µg/mL	12.5 µg/mL	12.5 µg/mL	25 µg/mL	0.78 µg/mL	1.56 µg/mL	6.25 µg/mL	6.25 µg/mL	12.5 µg/mL	25 µg/mL	50 µg/mL	O=C(C=Cc1ccc(O)cc1)OCc1c(CO)[n+]([O-])c2ccccc2[n+]1[O-] [Compound 7]	25 µg/mL	
100 µg/mL	50 µg/mL	200 µg/mL	< 100 µg/mL	100 µg/mL	6.25 µg/mL	6.25 µg/mL	12.5 µg/mL	12.5 µg/mL	6.25 µg/mL	50 µg/mL	6.25 µg/mL	O=C(CCc1ccc(O)cc1)OCc1c[n+]([O-])c2ccccc2[n+]1[O-] [Compound 8]	50 µg/mL	
50 µg/mL	50 µg/mL	50 µg/mL	12.5 µg/mL	50 µg/mL	< 1.56 µg/mL	6.25 µg/mL	1.56 µg/mL	1.56 µg/mL	3.12 µg/mL	25 µg/mL	< 1.56 µg/mL	CC(=O)c1c(COC(=O)c2ccc(O)cc2)[n+]([O-])c2ccccc2[n+]1[O-] [Compound 1]	50 µg/mL	
25 µg/mL	50 µg/mL	25 µg/mL	100 µg/mL	25 µg/mL	< 1.56 µg/mL	12.5 µg/mL	3.2 µg/mL	3.2 µg/mL	< 1.56 µg/mL	12.5 µg/mL	100 µg/mL	O=C(OCc1c(CO)[n+]([O-])c2ccccc2[n+]1[O-])c1ccc(O)cc1 [Compound 4]	50 µg/mL	
12.5 µg/mL	12.5 µg/mL	50 µg/mL	12.5 µg/mL	50 µg/mL	< 1.56 µg/mL	< 1.56 µg/mL	0.78 µg/mL	1.56 µg/mL	6.25 µg/mL	6.25 µg/mL	< 1.56 µg/mL	CC(=O)c1c(COC(=O)Cc2ccc(O)cc2)[n+]([O-])c2ccccc2[n+]1[O-] [Compound 3]	50 µg/mL	

Compound	Primary in vitro Activity (MIC) (E. Coli 51A-266)	Primary in vitro Activity (MIC) (E. Coli 51A-218)	Primary in vitro Activity (MIC) (Sal. typhim 58D011)	Primary in vitro Activity (MIC) (Past. mult 59A004)	Primary in vitro Activity (MIC) (Sal. dublin 58U001)	Primary in vitro Activity (MIC) (Strep. equi 021001)	Primary in vitro Activity (MIC) (Aer. hydro 72B001)	Primary in vitro Activity (MIC) (Staph. aureus 01A005)	Primary in vitro Activity (MIC) (Staph. aureus 01A106)	Primary in vitro Activity (MIC) (Strep. pyogen 02C203)	Primary in vitro Activity (MIC) (Past. mult 59A006)	Primary in vitro Activity (MIC) (Strep. zoo 02-H001)	Primary in vitro Activity (MIC) (Sal. cholsu 58B242)	further results
CC(=O)c1c(COC(=O)CCc2ccc(O)cc2)[n+]([O-])c2ccccc2[n+]1[O-] [Compound 10, 2-acetyl-3-Hydroxymethyl-Quinoxaline-1,4-Dioxide-p-Hydroxyphenylpropionic Acid Ester]	25 µg/mL	6.25 µg/mL	12.5 µg/mL	25 µg/mL	50 µg/mL	< 0.39 µg/mL	1.56 µg/mL	< 0.39 µg/mL	< 0.39 µg/mL	< 0.39 µg/mL	12.5 µg/mL	< 0.39 µg/mL	50 µg/mL	tolerance in swine ([1]; 150 ppm): The same results are observed in swine; adverse effects on pathological examination ([1]; swine, 50 ppm in feed): no adverse effects; ED50 (E. Coli 51A266; po): 7.6 ± 4.7 mg/kg; ED50 (E. Coli 51A266; sc): 13.3 ± 8.6 mg/kg; ED50 (Past. multi. 59A006; po): 13 ± 1.6 mg/kg; ED50 (Past. multi. 59A006; sc): 13 ± 1.6 mg/kg; ED50 (Sal. cholsu. 58B242; po): 8.4 ± 3.2 mg/kg; ED50 (Sal. cholsu. 58B242; sc): 6.9 ± 3.1 mg/kg; increase in feed efficiency of swine (feed efficiency of swine): 3%; morbidity in dysentery model (swine dysentery; nonmedicated: 100 percent): no deaths or morbidity; mortality in dysentery model (swine dysentery; nonmedicated: average 36 percent): no deaths; mortality in salmonellosis model (salmonellosis; nonmedicated: 20 percent died): none of the animals on a feed containing 50 ppm of Compound 10 died; animals judged unthrifty in salmonellosis model (salmonellosis; nonmedicated: 50 percent of survivors): 30%; MIC (Treponema hyodysenteriae): 0.19 µg/mL (≈ 0.497 µM); tolerance in chicks (tolerance in chicks): extremely well tolerated
